Experimental data taken from patent publication US5688807A, “Method for treating 5HT2B receptor related conditions” (Eli Lilly and Company, priority 1995, dated 1997).
Counter-ions that a name gives are not always drawn.

Target: 5-HT2B receptor (rat stomach fundus) (Rattus norvegicus, UniProt P30994)
Conditions: not given
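Also: isometric contraction of isolated male Wistar rat stomach fundus strips, serotonin concentration-response curves after antagonist incubation, KB from dose ratio of agonist potency versus control curve.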

5-HT2B receptor (rat stomach fundus), sequence (P30994 whole entry): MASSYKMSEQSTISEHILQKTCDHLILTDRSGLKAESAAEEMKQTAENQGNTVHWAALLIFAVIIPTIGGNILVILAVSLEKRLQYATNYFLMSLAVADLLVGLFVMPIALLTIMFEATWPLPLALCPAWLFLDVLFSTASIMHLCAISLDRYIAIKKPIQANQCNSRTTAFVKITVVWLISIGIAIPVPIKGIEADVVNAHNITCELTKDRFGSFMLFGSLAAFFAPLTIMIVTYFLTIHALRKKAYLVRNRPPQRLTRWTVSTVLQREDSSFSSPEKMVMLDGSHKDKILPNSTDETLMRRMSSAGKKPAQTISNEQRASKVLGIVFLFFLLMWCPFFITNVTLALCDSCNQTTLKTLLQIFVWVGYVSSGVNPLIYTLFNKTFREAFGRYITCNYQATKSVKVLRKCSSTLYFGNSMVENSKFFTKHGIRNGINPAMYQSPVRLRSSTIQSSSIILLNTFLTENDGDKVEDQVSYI

Compound	Kb
COc1ccc(CC2NCCc3c2[nH]c2c(Br)c(C)ccc32)cc1OC (stereo not drawn) [Example 7, 7-methyl-8-bromo-1-[(3,4-dimethoxyphenyl)-methyl]-1,2,3,4-tetrahydro-9H-pyrido[3,4-b]indole hydrochloride]	0.955 nM
COc1ccc(CC2NCCc3c2[nH]c2c(C)c(C)ccc32)cc1OC (stereo not drawn) [Example 19, 7,8-dimethyl-1,2,3,4-tetrahydro-1-[(3,4-dimethoxyphenyl)methyl]-9H-pyrido[3,4b]indole hydrochloride]	0.0759 nM

Same assay, conditions: rat stomach fundus; vs serotonin; ± standard error; read-out: 5-HT2B (Fundus) -log KB (converted)

Compound	Kb
COc1ccc(CC2NCCc3c2[nH]c2ccc(C)c(F)c32)cc1OC (stereo not drawn) [Example 9, 5-fluoro-6-methyl-1-[(3,4-dimethoxyphenyl)-methyl]-1,2,3,4-tetrahydro-9H-pyrido[3,4-b]indole]	0.501 nM
CCC(c1ccc(OC)c(OC)c1)C1NCCc2c1[nH]c1ccc(C)cc21 (racemic) [Example 43, (±) 6-methyl-1-[(3,4-dimethoxyphenyl)-1-propyl]-1,2,3,4-tetrahydro-9H-pyrido[3,4-b]indole (Z)-2-butenedioate]	0.363 nM
COc1cc(CC2NCCc3c2[nH]c2ccc(C)cc32)cc(I)c1OC (stereo not drawn) [Example 29, 6-methyl-1-[(3-iodo-4,5-dimethoxy-phenyl)-methyl]-1,2,3,4-tetrahydro-9H-pyrido[3,4-b]indole]	7.59 nM
COc1c(O)ccc(CC2NCCc3c2[nH]c2ccc(C)cc32)c1Cl (stereo not drawn) [Example 37, 6-methyl-1-[(2-chloro-3-methoxy-4-hydroxyphenyl)methyl]-1,2,3,4-tetrahydro-9H-pyrido[3,4-b]-indole hydrochloride]	0.646 nM
COc1ccc(CC2NCCc3c2[nH]c2ccc(Br)cc32)cc1OC (stereo not drawn) [Example 18, 6-bromo-1,2,3,4-tetrahydro-1-[(3,4-dimethoxyphenyl)methyl]-9H-pyrido[3,4b]indole]	1.58 nM
COc1cc(CC2NCCc3c2[nH]c2ccc(C)cc32)cc(N)c1OC (stereo not drawn) [Example 30, 6-methyl-1-[(3,4-dimethoxy-5-amino-phenyl)-methyl]-1,2,3,4-tetrahydro-9H-pyrido[3,4-b]indole dihydrochloride]	1.29 nM
Cc1ccc2[nH]c3c(c2c1)CCN(C)C3Cc1cccc2ccccc12 (racemic) [Example 58, (+/-) 2,6-dimethyl-1-(1-naphthalenylmethyl)-1,2,3,4-tetrahydro-9H-pyrido [3,4-b] indole hydrochloride]	> 30.2 nM

Further lines, results first:

Kb	Compound
~29.5 nM	Cc1ccc2c3c([nH]c2c1Br)C(Cc1cccc2ccccc12)NCC3 (racemic) [Example 56, (±) 7-methyl-8-bromo-1-(1-naphthalenylmethyl)-1,2,3,4-tetrahydro-9H-pyrido [3,4-b]indole hydrochloride]
3.63 nM	CC(C)(C)c1ccc2[nH]c3c(c2c1)CCNC3Cc1cccc2ccccc12 (racemic) [Example 61, (+/-) 6-(1,1-dimethylethyl)-1,2,3,4-tetrahydro-1-(1-naphthalenylmethyl)-9H-pyrido [3,4b] indole (Z)-2-butenedioate]
1.2 nM	c1ccc2c(CC3NCCc4c3[nH]c3c4ccc4ccccc43)cccc2c1 (racemic) [Example 60, (+/-) 7,8,9,10-tetrahydro-10-(1-naphthalenylmethyl)-11H-benzo [g] pyrido [3,4-b] indole (Z)-2-butenedioate]
0.603 nM	COc1ccc(CC2NCCc3c2[nH]c2c3ccc3ccccc32)cc1OC (stereo not drawn) [Example 10, 7,8,9,10-tetrahydro-10-[(3,4-dimethoxyphenyl)methyl]-11H-benzo[g]pyrido[3,4-b]indole]
2.63 nM	CC(C)c1ccc2[nH]c3c(c2c1)CCNC3Cc1cccc2ccccc12 (racemic) [Example 62, (+/-) 6-(1-methylethyl)-1,2,3,4-tetrahydro-1-(1-naphthalenylmethyl)-9H-pyrido [3,4b] indole (Z)-2-butenedioate]

Same assay, conditions: read-out: 5-HT2B (Fundus) -log KB (converted)

Kb	Compound
~0.871 nM	Cc1ccc2[nH]c3c(c2c1)CCNC3Cc1ccc(C)c(C)c1 (stereo not drawn) [Example 35, 6-methyl-1-[(3,4-dimethylphenyl)methyl]-1,2,3,4-tetrahydro-9H-pyrido[3,4-b]indole hydrochloride]
